What was measured:
Type in all cases: in vivo
[1] = system: barnyardgrass (Echinochloa crus-galli); assay: Test B pre-/postemergence plant response
How it was run: (§1)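 Ratings reflect visual injury versus untreated controls, from 0 for no effect to 100 for complete control, assessed roughly 10 days after treatment. Formulation: non-phytotoxic solvent mix with surfactant; pre- and postemergence sprays on plants grown in loam soil and sand.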

[2] = system: Italian ryegrass (Lolium multiflorum); assay: Test B pre-/postemergence plant response
How it was run: as §1

[3] = system: ragweed (common ragweed, Ambrosia elatior); assay: Test B pre-/postemergence plant response
How it was run: as §1

corn (Zea mays) = assay: Test B pre-/postemergence plant response
How it was run: as §1

[4] = system: giant foxtail (Setaria faberii); assay: Test B pre-/postemergence plant response
How it was run: as §1

[5] = system: wheat (Triticum aestivum); assay: Test B pre-/postemergence plant response
How it was run: as §1

kochia (Kochia scoparia) [6] = assay: Test B pre-/postemergence plant response
How it was run: as §1

[7] = system: pigweed (Amaranthus retroflexus); assay: Test B pre-/postemergence plant response
How it was run: as §1

[8] = system: galium (catchweed bedstraw, Galium aparine); assay: Test B postemergence plant response
How it was run: (§2)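 Seedlings in a loam soil and sand mix received a postemergence application of the formulated chemicals at the one- to two-leaf stage (2–10 cm tall). They were kept in a greenhouse for roughly 10 days, then scored for injury relative to untreated plants, 0 meaning no effect and 100 complete control.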

[9] = system: blackgrass (Alopecurus myosuroides); assay: Test B postemergence plant response
How it was run: as §2

[10] = system: barnyardgrass (Echinochloa crus-galli); assay: Test C flooded paddy test plant response; conditions: Flood, 250 g ai/ha; scale of 0 to 100 where 0 is no effect and 100 is complete control; 13 to 15 days
How it was run: (§3)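 Scale 0 (no effect) to 100 (complete control), assigned visually versus controls after 13–15 d greenhouse. Application: directly to paddy water, 3 cm flood depth kept constant, 2-leaf stage.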

[11] = system: ducksalad (Heteranthera limosa); assay: Test C flooded paddy test plant response; conditions: Flood, 250 g ai/ha; scale of 0 to 100 where 0 is no effect and 100 is complete control; 13 to 15 days
How it was run: as §3

rice (Oryza sativa) = assay: Test C flooded paddy test plant response; conditions: Flood, 250 g ai/ha; scale of 0 to 100 where 0 is no effect and 100 is complete control; 13 to 15 days
How it was run: as §3

[12] = system: small-flower umbrella sedge (Cyperus difformis); assay: Test C flooded paddy test plant response; conditions: Flood, 250 g ai/ha; scale of 0 to 100 where 0 is no effect and 100 is complete control; 13 to 15 days
How it was run: as §3

wild oat (Avena fatua) = assay: Test D postemergence plant response
How it was run: (§4)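 Postemergence spray on plants 2–18 cm tall (1- to 4-leaf stage), grown in pots of peat/vermiculite medium. Plants were kept in a greenhouse for 13–15 days, then visually rated against untreated controls on a 0 (no effect) to 100 (complete control) scale.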

[13] = system: chickweed (common chickweed, Stellaria media); assay: Test D postemergence plant response; conditions: for Chickweed plant response rating: scale 0 to 100 (0 no effect, 100 complete control); for Plant response rating, Chickweed: scale 0 to 100, 0 no effect, 100 complete control
How it was run: as §4

kochia (Kochia scoparia) [14] = assay: Test D postemergence plant response; conditions: for Kochia plant response rating: scale 0 to 100 (0 no effect, 100 complete control); for Plant response rating, Kochia: scale 0 to 100, 0 no effect, 100 complete control
How it was run: as §4

[15] = Postemergence, 1000 g ai/ha, 0 to 100 scale (0 no effect, 100 complete control)
[16] = Preemergence, 1000 g ai/ha, 0 to 100 scale (0 no effect, 100 complete control)
[17] = 31 g ai/ha, scale 0 to 100 (0 no effect, 100 complete control)
[18] = 62 g ai/ha, scale 0 to 100, 0 no effect, 100 complete control
[19] = 125 g ai/ha, scale 0 to 100, 0 no effect, 100 complete control
[20] = 31 g ai/ha, Postemergence, 0 to 100 scale, 0 no effect, 100 complete control
[21] = 31 g ai/ha, Preemergence, 0 to 100 scale where 0 is no effect and 100 is complete control
[22] = 125 g ai/ha, postemergence, 0 to 100 scale, 0 no effect, 100 complete control
[23] = Preemergence, 125 g ai/ha, 0 to 100 scale where 0 is no effect and 100 is complete control

Which “Plant response rating, Barnyardgrass” value [1, 15] does the source give for `Clc1cnc(Oc2ccccc2-c2cc(Cl)sn2)nc1` [Compound 192] here?
The value was 100.

What about the “Plant response rating, Barnyardgrass” value [1, 16] of the same molecule?
The value was 100.

What about the “Plant response rating, Ryegrass, Italian” value [2, 15] of the same molecule?
The value was 50.

What about the “Plant response rating, Ryegrass, Italian” value [2, 16] of the same molecule?
The value was 50.

And the “Plant response rating, Ragweed” value [3, 15]?
The value was 60.

And the “Plant response rating, Ragweed” value [3, 16]?
Its value is 20.

And the “Plant response rating, Corn” value (corn (Zea mays); [15])?
The value was 30.

What about the “Plant response rating, Foxtail, Giant” value [4, 15] of the same molecule?
Its value is 90.

What about the “Plant response rating, Foxtail, Giant” value [4, 16] of the same molecule?
The value was 100.

What about the “Plant response rating, Wheat” value [5, 15] of the same molecule?
The value was 30.

And the “Plant response rating, Kochia” value (kochia (Kochia scoparia) [6]; [15])?
Its value is 100.

What about the “Plant response rating, Kochia” value (kochia (Kochia scoparia) [6]; [16]) of the same molecule?
Its value is 100.

And the “Plant response rating, Pigweed” value [7, 15]?
The value was 100.

And the “Plant response rating, Pigweed” value [7, 16]?
Its value is 100.

And the “Plant response rating, Galium” value [8, 15]?
The value was 100.

What about the “Plant response rating, Blackgrass” value [9, 15] of the same molecule?
The value was 90.

What about the “Barnyardgrass plant response rating” value [10] of the same molecule?
The value was 0.

And the “Ducksalad plant response rating” value [11]?
Its value is 60.

And the “Rice plant response rating” value (rice (Oryza sativa))?
Its value is 0.

And the “Sedge, Umbrella plant response rating” value [12]?
Its value is 40.

What about the “Plant response rating (scale 0 to 100), Oat, Wild” value (wild oat (Avena fatua); 16 g ai/ha) of the same molecule?
Its value is 0.

What about the “Oat, Wild plant response rating” value (wild oat (Avena fatua); [17]) of the same molecule?
The value was 0.

What about the “Oat, Wild plant response rating” value (wild oat (Avena fatua); [18]) of the same molecule?
Its value is 0.

And the “Plant response rating, Oat, Wild” value (wild oat (Avena fatua); [19])?
The value was 5.

What about the “Plant response rating (scale 0 to 100), Chickweed” value ([13]; 16 g ai/ha) of the same molecule?
Its value is 0.

And the “Chickweed plant response rating” value ([13]; 31 g ai/ha)?
Its value is 50.

What about the “Plant response rating, Chickweed” value ([13]; 62 g ai/ha) of the same molecule?
Its value is 50.

What about the “Plant response rating, Chickweed” value ([13]; 125 g ai/ha) of the same molecule?
The value was 55.

What about the “Plant response rating (scale 0 to 100), Kochia” value (kochia (Kochia scoparia) [14]; 16 g ai/ha) of the same molecule?
Its value is 50.

And the “Kochia plant response rating” value (kochia (Kochia scoparia) [14]; 31 g ai/ha)?
The value was 80.

And the “Plant response rating, Kochia” value (kochia (Kochia scoparia) [14]; 62 g ai/ha)?
Its value is 90.

And the “Plant response rating, Kochia” value (kochia (Kochia scoparia) [14]; 125 g ai/ha)?
The value was 95.

For `FC(F)c1cc(-c2c(Cl)cccc2Oc2ncc(Cl)cn2)on1` [Compound 120], which “Plant response rating, Barnyardgrass” value [1, 20] is on record?
Its value is 50.

What about the “Plant response rating, Barnyardgrass” value [1, 21] of the same molecule?
Its value is 90.

And the “Plant response rating, Barnyardgrass” value [1, 22]?
Its value is 90.

And the “Plant response rating, Barnyardgrass” value [1, 23]?
Its value is 100.

What about the “Plant response rating, Ryegrass, Italian” value [2, 20] of the same molecule?
The value was 30.

And the “Plant response rating, Ryegrass, Italian” value [2, 21]?
The value was 40.

What about the “Plant response rating, Ryegrass, Italian” value [2, 22] of the same molecule?
The value was 90.

What about the “Plant response rating, Ragweed” value [3, 20] of the same molecule?
The value was 40.

And the “Plant response rating, Ragweed” value [3, 21]?
The value was 10.

What about the “Plant response rating, Ragweed” value [3, 22] of the same molecule?
Its value is 70.

What about the “Plant response rating, Corn” value (corn (Zea mays); [20]) of the same molecule?
The value was 30.

What about the “Plant response rating, Corn” value (corn (Zea mays); [22]) of the same molecule?
The value was 40.

And the “Plant response rating, Foxtail, Giant” value [4, 20]?
Its value is 40.

What about the “Plant response rating, Foxtail, Giant” value [4, 21] of the same molecule?
Its value is 100.

What about the “Plant response rating, Foxtail, Giant” value [4, 22] of the same molecule?
The value was 90.

And the “Plant response rating, Foxtail, Giant” value [4, 23]?
The value was 100.

What about the “Plant response rating, Wheat” value [5, 20] of the same molecule?
Its value is 0.

What about the “Plant response rating, Wheat” value [5, 22] of the same molecule?
Its value is 40.

What about the “Plant response rating, Kochia” value (kochia (Kochia scoparia) [6]; [20]) of the same molecule?
The value was 90.

What about the “Plant response rating, Kochia” value (kochia (Kochia scoparia) [6]; [21]) of the same molecule?
The value was 80.

And the “Plant response rating, Kochia” value (kochia (Kochia scoparia) [6]; [22])?
The value was 90.

And the “Plant response rating, Kochia” value (kochia (Kochia scoparia) [6]; [23])?
The value was 90.

What about the “Plant response rating, Pigweed” value [7, 20] of the same molecule?
Its value is 100.

And the “Plant response rating, Pigweed” value [7, 21]?
Its value is 100.

What about the “Plant response rating, Pigweed” value [7, 22] of the same molecule?
The value was 100.

What about the “Plant response rating, Galium” value [8, 20] of the same molecule?
The value was 100.

What about the “Plant response rating, Galium” value [8, 22] of the same molecule?
The value was 100.

What about the “Plant response rating, Blackgrass” value [9, 20] of the same molecule?
The value was 70.

And the “Plant response rating, Blackgrass” value [9, 22]?
Its value is 90.

What about the “Barnyardgrass plant response rating” value [10] of the same molecule?
The value was 90.

What about the “Ducksalad plant response rating” value [11] of the same molecule?
The value was 100.

And the “Rice plant response rating” value (rice (Oryza sativa))?
Its value is 90.

And the “Sedge, Umbrella plant response rating” value [12]?
The value was 95.

What about the “Oat, Wild plant response rating” value (wild oat (Avena fatua); 16 g ai/ha, scale 0 to 100 (0 no effect, 100 complete control)) of the same molecule?
The value was 35.

What about the “Oat, Wild plant response rating” value (wild oat (Avena fatua); [17]) of the same molecule?
The value was 40.

And the “Plant response rating, Oat, Wild” value (wild oat (Avena fatua); [18])?
The value was 55.

And the “Plant response rating, Oat, Wild” value (wild oat (Avena fatua); [19])?
The value was 60.

What about the “Chickweed plant response rating” value ([13]; 16 g ai/ha) of the same molecule?
Its value is 95.

What about the “Chickweed plant response rating” value ([13]; 31 g ai/ha) of the same molecule?
The value was 100.

And the “Plant response rating, Chickweed” value ([13]; 62 g ai/ha)?
The value was 100.

What about the “Plant response rating, Chickweed” value ([13]; 125 g ai/ha) of the same molecule?
Its value is 100.

And the “Kochia plant response rating” value (kochia (Kochia scoparia) [14]; 16 g ai/ha)?
The value was 98.

What about the “Kochia plant response rating” value (kochia (Kochia scoparia) [14]; 31 g ai/ha) of the same molecule?
The value was 100.

What about the “Plant response rating, Kochia” value (kochia (Kochia scoparia) [14]; 62 g ai/ha) of the same molecule?
The value was 100.

What about the “Plant response rating, Kochia” value (kochia (Kochia scoparia) [14]; 125 g ai/ha) of the same molecule?
The value was 100.

— US10131652B2, “Pyrimidinyloxy benzene derivatives as herbicides” (E. I. DU PONT DE NEMOURS AND COMPANY, priority 2014, dated 2018)
